Source: patent publication US6323001A, “Increasing the trehalose content of organisms by transforming them with combinations of the structural genes for trehalose synthase” (BTG International Ltd., priority 1994, dated 2001)
Read-outs that look alike come from different tables or passages of the source.

Target: T1, Tre6Pase activity of intact trehalose synthase (Saccharomyces cerevisiae, UniProt P31688)
T1 construct: Intact trehalose synthase was purified from commercial baker's yeast; made in house; host or cells: commercial baker's yeast (native enzyme purified, not recombinant)
T1 sequence (P31688 1-896): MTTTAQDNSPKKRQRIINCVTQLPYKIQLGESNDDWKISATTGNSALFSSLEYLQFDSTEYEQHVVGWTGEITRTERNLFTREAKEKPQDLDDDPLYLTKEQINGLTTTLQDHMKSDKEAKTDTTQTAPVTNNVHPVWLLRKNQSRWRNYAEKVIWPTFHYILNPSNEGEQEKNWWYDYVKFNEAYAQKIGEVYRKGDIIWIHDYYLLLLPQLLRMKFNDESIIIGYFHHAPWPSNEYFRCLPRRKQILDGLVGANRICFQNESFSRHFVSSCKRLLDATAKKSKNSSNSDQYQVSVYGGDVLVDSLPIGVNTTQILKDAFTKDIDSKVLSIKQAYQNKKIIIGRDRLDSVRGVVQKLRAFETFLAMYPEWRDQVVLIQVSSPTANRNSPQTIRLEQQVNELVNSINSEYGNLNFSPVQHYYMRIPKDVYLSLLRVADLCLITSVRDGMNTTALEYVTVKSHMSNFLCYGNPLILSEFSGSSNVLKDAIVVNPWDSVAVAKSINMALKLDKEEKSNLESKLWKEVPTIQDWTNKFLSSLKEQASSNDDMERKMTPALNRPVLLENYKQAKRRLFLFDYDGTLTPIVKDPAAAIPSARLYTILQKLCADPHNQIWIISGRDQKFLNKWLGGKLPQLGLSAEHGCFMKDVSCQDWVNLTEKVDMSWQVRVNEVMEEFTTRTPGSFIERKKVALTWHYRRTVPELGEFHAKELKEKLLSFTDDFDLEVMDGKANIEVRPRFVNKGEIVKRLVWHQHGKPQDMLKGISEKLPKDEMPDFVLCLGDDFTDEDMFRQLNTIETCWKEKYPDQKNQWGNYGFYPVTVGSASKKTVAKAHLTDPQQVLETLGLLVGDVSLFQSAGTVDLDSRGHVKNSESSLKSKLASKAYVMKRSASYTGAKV
T1 sequence (Q00764 1-495 partner): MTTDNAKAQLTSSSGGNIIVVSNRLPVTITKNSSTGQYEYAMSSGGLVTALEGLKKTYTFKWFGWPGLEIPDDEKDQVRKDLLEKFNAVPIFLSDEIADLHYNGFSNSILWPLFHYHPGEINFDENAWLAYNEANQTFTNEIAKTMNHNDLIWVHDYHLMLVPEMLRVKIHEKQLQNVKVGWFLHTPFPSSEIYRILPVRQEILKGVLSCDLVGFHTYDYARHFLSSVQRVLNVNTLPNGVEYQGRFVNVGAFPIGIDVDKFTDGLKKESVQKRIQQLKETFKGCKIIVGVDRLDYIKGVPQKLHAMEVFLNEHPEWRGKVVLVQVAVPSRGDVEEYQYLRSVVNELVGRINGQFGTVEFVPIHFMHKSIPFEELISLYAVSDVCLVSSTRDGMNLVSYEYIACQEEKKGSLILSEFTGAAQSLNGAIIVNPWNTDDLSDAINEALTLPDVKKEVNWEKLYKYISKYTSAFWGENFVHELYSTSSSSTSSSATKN
T1 sequence (P38427 1-1098 partner): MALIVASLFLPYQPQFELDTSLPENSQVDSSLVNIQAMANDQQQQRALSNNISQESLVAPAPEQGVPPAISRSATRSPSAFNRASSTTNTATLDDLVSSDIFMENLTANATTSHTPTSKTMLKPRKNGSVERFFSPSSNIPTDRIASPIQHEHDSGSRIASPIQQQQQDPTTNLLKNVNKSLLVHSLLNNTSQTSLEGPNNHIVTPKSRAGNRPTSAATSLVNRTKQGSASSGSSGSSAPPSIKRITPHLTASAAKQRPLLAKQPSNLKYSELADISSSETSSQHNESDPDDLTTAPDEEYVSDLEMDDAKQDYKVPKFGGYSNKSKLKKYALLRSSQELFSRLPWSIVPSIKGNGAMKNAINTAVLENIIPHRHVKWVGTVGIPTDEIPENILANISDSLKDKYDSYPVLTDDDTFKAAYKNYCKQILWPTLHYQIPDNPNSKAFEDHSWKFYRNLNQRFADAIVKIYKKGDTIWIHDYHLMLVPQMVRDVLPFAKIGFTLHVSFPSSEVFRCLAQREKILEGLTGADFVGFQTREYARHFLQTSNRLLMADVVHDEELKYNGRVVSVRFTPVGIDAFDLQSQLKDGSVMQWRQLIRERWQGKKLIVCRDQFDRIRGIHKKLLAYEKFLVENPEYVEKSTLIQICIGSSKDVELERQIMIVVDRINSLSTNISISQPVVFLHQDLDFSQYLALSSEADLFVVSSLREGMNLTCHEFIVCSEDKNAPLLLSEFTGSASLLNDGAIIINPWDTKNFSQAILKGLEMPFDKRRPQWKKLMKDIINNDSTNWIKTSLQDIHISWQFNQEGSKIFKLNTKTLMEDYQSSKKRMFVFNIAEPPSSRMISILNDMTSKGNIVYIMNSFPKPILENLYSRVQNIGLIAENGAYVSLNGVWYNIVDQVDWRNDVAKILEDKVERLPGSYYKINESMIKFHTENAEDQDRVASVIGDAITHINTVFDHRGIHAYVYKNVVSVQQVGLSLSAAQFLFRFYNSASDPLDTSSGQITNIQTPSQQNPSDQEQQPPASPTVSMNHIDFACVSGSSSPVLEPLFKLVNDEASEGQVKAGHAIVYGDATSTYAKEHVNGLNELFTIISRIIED
Assay: Tre6Pase assay of intact trehalose synthase
Type: biochemical, baker's yeast
Procedure: With microbial materials, Tre6Pase and Tre6P synthase standard assays and other kinetic measurements were made as described by Londesborough & Vuorio [(1991) loc. cit.] except that the standard Tre6P synthase assay mixture contained 5 mM F6P unless stated otherwise.
In one experiment intact trehalose synthase (0.28 Tre6P synthase units, ≈9.4 μg) was incubated with or without 0.5 μg of trypsin at 30° C. in 250 μl of 13 mM HEPES pH 7.0 containing 1 mM MgCl2, 0.5 mM EDTA, 0.5 mM dithiothreitol, 0.2 M NaCl and 0.5 mM benzamidine. Its Tre6P synthase activity was determined at intervals using standard assay mixtures (containing 5 mM F6P) containing no or 4 mM K phosphate pH 6.8, and samples were prepared for SDS-PAGE analysis immediately before and 48 min after addition of the trypsin.
Intact trehalose synthase was prepared as in Example 1. Kinetic assays were done at 30° C. as described in General Methods and Materials.

| SMILES | EC50 (initial rates, intact enzyme, read-out: half maximal activation of Tre6Pase by phosphate) | effect on Tre6Pase activity (in the absence of phosphate, intact enzyme) | inhibition at 5000 µM (read-out: inhibition of Tre6Pase activity, 5 mM F6P, saturating phosphate concentrations, intact enzyme) | inhibition at 5000 µM (read-out: inhibition of Tre6Pase activity, 5 mM F6P, sub-optimal phosphate concentrations, intact enzyme) |
| --- | --- | --- | --- | --- |
| O=P(O)(O)O [phosphate, K phosphate] | 600 µM |  |  |  |
| O=C(CO)[C@@H](O)[C@H](O)[C@H](O)COP(=O)(O)O [Transformant F6P, Fructose 6-phosphate] |  | did not affect | 10 to 15% | 20 to 30% |
